Test results: patent publication US20230088286A1, “USP7 INHIBITOR FOR USE IN THE TREATMENT OF CANCER” (ALMAC DISCOVERY LIMITED, priority 2020, published 2023)
“Also recorded” adds a separate entry of the source. Where two headings read alike, the source gives them in different places.

How the values were obtained:
[1] = system: primary fibroblasts, cancer cells, immortalized fibroblasts; experiment: intracellular VEGF ELISA in cell lysates; format: cell-based, human; conditions: 48 h
Method: For the co-culture experiments, 5×10^4 cancer cells were seeded in transwell in 0.5 mL complete growth medium and placed on the top of 0.1×10^6 fibroblasts plated in 12-well in 1 mL low serum growth media overnight. Following day cancer cells were washed with PBS and media replaced with reduced (1%) serum growth media. 0.5×10^6 PBMC were plated on top of fibroblasts, incubated for 45 min and activated with CD3 (1 μg/ml final concentration) and CD28 (5 μg/ml final concentration). […] Monoculture experiments, 0.1×10^6 cells were seeded in 12-well in 1 mL of complete growth media (cancer cells) or low serum growth media (fibroblasts) and incubated overnight. […] Afterwards, cell culture media was collected, cell debris were removed by centrifugation the concentration of VEGF in the cell culture supernatants was measured using the human/mouse VEGF immunoassay Quantikine ELISA kit (R&D systems, Minneapolis, Minn., USA) according to the manufacturer's instructions. For the intracellular VEGF detection, total protein concentration was determined by BCA (Pierce Chemical, USA) and VEGF levels determined using the same kit described above.

[2] = system: primary fibroblast, immortalised fibroblast, endothelial cells and cancer cells; experiment: Proliferation by live cell time-lapse imaging; format: cell-based, human; conditions: fibroblasts or endothelial cells
Method: During a proliferation assay, pictures were taken every 2 hours using a time-lapse microscope. Charts were used to display cell confluency over time.
To examine the effect of USP7 inhibition on proliferation of primary fibroblast, immortalised fibroblast, endothelial cells and cancer cells, live cell time-lapse imaging was used.

[3] = system: cancer cells, fibroblasts and endothelial cells; experiment: Scratch wound cell migration assay; format: cell-based, human; conditions: any of tested cells
Method: Pictures of wound closure were taken every 2 hours during a 4-day assay using a time-lapse microscope. Charts are displaying the percentage of wound closure over time.
(§1) 96-well ImageLock plates were coated with 0.1 mg/ml growth factor reduced Matrigel® and incubated for 1 h at 37° C. Cells were seeded a density of 10,000-40,000 cells/well in 100 μL/well and incubated overnight. Next day wounds were simultaneously created in all wells using the WoundMaker. After wounding, media was aspirated from each well and cells were washed twice with PBS. For invasion cells were overlayed with 50 μL of the Matrigel® top layer at 3mg/ml and incubated for 30 min at 37° C. […] Cell plates were placed into the IncuCyte live-cell analysis system and each well imaged using 10× objective every 2 hours for the total of 5-days. Images were analysed using IncuCyte scratch wound protocol and results presented as percentage of wound confluence.

[4] = system: primary fibroblasts, immortalized fibroblasts, cancer cells; experiment: Scratch wound cell invasion assay through Matrigel; format: cell-based, human
Method: The scratch wound cell invasion assay was used to measure the ability of indicated cells to invade through Matrigel® basement membrane. Pictures were taken every 2 hours over 4 days using a time-lapse microscope and wound closure over time is presented in charts.
as §1

HUVEC = experiment: Matrigel tube formation assay; format: cell-based, human; conditions: 6 hours
Method: FIG. 28: USP7 inhibition has no direct effect on HUVEC tube formation in vitro. […] The tube formation images were taken after 6 h after tube initiation.
Each well of a pre-chilled 96-well plate was coated with 50 μL of unpolymerized growth factor reduced Matrigel® (9.2 mg/mL) and incubated at 37° C. in 5% CO2 for 2 h. HUVECs were harvested with trypsin, and 1.5×10^4 cells were resuspended in 100 μL complete endothelial cell growth medium. […] After approximately 6 hours of incubation at 37° C. in 5% CO2, images of the center of each were taken at 4× magnification.

[5] = system: CT-26 cells in BALB/C mice; experiment: CT-26 syngeneic tumour model (AD-04 study)
Method: FIG. 30: Effect of USP7 on the tumour microenvironment in vivo.
For subcutaneous tumour implantation, CT26 cells were injected subcutaneously (1×10^6cells in 200 μL of RPMI) in the right flank of 8- to 10-week-old BALB/c female mice. […] Tumour volume (in mm^3) was measured twice a week with a digital caliper and calculated by the following formula: volume=(width)^2×length/2. Body weight was measured twice a week. […]

PPB Fu (h) = format: in vitro ADME; conditions: human, plasma
2C9 = 2C9 (Homo sapiens, UniProt P11712); experiment: Cyp inhibition 2C9; format: in vitro ADME; conditions: read-out: Cyps: 2C9
2C9, sequence (P11712 whole entry): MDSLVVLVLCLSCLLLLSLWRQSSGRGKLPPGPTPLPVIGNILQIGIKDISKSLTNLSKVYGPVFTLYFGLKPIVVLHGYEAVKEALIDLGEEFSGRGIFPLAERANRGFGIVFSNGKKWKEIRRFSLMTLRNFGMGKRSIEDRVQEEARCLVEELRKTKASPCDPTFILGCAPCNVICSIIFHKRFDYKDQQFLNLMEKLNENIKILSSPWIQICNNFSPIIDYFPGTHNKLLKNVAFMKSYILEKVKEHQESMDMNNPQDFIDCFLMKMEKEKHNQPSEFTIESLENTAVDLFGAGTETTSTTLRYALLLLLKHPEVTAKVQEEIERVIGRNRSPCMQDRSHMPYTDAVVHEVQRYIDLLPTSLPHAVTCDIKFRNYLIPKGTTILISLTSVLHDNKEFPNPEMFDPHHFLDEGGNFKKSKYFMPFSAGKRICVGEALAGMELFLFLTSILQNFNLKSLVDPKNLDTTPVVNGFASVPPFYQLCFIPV

USP7 [6] = target: T1, USP7 (Homo sapiens, UniProt Q93009); experiment: TE (HCT116); format: cell-based
T1 sequence (Q93009 whole entry): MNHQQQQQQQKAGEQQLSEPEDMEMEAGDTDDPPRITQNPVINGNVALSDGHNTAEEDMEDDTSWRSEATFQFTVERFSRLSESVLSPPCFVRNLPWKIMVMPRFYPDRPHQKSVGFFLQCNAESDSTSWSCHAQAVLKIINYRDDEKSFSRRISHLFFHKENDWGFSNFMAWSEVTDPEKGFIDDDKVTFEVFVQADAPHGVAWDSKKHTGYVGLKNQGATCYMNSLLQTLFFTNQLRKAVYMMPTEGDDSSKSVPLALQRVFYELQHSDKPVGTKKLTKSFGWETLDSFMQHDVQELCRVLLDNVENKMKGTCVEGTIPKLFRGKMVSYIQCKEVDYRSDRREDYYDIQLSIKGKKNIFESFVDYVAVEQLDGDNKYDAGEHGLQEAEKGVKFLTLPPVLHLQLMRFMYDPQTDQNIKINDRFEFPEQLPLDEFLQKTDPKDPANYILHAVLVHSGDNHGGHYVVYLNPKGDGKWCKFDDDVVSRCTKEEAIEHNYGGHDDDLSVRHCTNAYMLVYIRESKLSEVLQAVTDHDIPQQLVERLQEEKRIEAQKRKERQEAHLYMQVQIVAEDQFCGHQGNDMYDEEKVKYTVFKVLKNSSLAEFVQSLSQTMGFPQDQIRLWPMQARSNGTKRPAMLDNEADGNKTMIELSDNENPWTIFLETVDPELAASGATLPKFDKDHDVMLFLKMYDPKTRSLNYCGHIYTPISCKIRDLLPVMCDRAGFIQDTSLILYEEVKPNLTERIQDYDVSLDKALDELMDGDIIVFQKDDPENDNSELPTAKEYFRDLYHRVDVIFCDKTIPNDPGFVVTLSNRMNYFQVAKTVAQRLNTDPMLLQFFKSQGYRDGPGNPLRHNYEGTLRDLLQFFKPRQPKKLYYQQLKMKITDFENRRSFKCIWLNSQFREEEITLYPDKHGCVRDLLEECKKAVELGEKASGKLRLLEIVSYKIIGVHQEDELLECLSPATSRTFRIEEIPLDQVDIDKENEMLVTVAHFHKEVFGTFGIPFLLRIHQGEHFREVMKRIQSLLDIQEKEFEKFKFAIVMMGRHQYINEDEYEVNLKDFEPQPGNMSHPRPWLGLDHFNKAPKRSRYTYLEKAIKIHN

2C19 = 2C19 (Homo sapiens, UniProt P33261); experiment: Cyp inhibition 2C19; format: in vitro ADME; conditions: read-out: Cyps: 2C19
2C19, sequence (P33261 whole entry): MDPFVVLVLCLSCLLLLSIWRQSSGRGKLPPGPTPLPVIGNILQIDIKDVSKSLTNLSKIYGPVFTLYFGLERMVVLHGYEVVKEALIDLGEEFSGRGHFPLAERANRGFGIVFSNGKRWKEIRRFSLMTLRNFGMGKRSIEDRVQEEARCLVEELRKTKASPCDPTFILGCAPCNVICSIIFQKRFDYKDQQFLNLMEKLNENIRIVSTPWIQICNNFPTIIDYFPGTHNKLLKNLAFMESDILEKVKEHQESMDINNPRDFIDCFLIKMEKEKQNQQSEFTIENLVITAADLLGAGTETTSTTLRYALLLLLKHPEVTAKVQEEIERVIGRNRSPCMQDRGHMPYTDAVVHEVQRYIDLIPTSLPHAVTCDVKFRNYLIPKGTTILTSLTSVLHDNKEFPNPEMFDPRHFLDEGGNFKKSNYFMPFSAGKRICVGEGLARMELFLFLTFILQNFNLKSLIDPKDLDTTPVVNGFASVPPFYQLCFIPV

hERG = hERG (Homo sapiens, UniProt Q12809); experiment: hERG
hERG, sequence (Q12809 whole entry): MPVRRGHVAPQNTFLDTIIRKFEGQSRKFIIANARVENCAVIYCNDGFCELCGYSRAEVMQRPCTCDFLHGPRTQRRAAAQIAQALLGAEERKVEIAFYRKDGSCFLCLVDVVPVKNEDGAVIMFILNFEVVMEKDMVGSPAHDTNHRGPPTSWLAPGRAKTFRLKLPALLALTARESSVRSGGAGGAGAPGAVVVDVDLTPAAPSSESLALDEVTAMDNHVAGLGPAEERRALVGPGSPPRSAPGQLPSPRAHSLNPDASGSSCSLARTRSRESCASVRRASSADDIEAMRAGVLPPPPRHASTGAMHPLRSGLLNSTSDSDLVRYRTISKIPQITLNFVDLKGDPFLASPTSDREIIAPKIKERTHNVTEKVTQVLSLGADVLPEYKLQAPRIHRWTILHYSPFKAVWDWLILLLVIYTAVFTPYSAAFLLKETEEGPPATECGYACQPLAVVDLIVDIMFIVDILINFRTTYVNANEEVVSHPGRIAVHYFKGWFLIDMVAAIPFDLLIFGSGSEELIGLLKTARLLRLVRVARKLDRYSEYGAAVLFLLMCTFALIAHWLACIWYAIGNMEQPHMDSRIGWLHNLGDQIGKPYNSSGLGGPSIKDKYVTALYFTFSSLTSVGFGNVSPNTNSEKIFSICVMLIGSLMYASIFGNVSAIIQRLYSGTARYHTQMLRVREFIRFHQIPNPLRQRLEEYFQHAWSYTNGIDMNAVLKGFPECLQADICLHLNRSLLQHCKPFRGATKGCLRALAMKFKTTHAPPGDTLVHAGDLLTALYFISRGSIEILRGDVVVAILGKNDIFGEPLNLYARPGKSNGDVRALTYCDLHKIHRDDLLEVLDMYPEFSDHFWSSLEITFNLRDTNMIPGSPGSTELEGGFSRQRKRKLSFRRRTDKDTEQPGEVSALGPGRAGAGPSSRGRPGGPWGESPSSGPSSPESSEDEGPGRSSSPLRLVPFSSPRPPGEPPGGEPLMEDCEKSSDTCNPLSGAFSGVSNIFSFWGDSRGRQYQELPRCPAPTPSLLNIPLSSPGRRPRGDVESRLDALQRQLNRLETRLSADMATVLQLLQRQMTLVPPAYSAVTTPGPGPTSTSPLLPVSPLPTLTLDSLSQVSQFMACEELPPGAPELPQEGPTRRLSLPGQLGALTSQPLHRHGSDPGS

LNCaP = LNCaP cell EC50; format: cell-based; conditions: Homo sapiens
Hep CLhep (m) = format: in vitro ADME, mouse
Hep CLhep (h) = format: in vitro ADME, human
USP7 [7] = target: T1, USP7; experiment: USP7 FP; format: biochemical
LM CLhep (d) = format: in vitro ADME, dog
MDCK = MDCK permeability; format: in vitro ADME
MDCK permeability = format: in vitro ADME; conditions: dog, MDCK; read-out: MDCK Papp ratio
KSol = format: physicochemical
TSol = format: physicochemical
Caco-2 permeability = format: in vitro ADME; conditions: human, Caco-2; read-out: Caco-2 Papp ratio
Caco-2 = Caco-2 permeability; format: in vitro ADME

C[C@H](CC(=O)N1CCC(O)(Cn2cnc3c(-c4ccc(CN)cc4)n(C)nc3c2=O)CC1)c1ccccc1 [AD-04, (R)-3-(4-(Aminomethyl)phenyl)-6-((4-hydroxy-1-(3-phenylbutanoyl)piperidin-4-yl)methyl)-2-methyl-2H-pyrazolo[4,3-d]pyrimidin-7(6H)-one]
intracellular VEGF levels ([1]; cancer cells or immortalized fibroblasts): not in cancer cells or immortalized fibroblasts
intracellular VEGF levels ([1]; primary fibroblast lysates): decreases
proliferation [2]: no effect
migration (scratch wound healing) [3]: did not modulate migration
number of invading cells ([4]; cancer cells and immortalized fibroblasts): did not change
invasion through Matrigel basement membrane ([4]; primary fibroblast, compared to vehicle-treated cells): greatly reduced
HUVEC tube formation on Matrigel (HUVEC): did not disrupt
tumour growth inhibition ([5]; 360 h): 53%
growth of CT26 xenografts (tumour volume) ([5]; dose-dependent manner): inhibited the growth
tolerability, bodyweight of tumour-bearing mice ([5]; mouse, in vivo): no significant bodyweight loss; also recorded: well tolerated

CC1(C(=O)N2CCC(O)(Cn3cnc4c(cc(Cl)n4-c4ccc5c(c4)CCO5)c3=O)CC2)CC1 [ADC-159, 6-Chloro-7-(2,3-dihydrobenzofuran-5-yl)-3-((4-hydroxy-1-(1-methylcyclopropane-1-carbonyl)piperidin-4-yl)methyl)-3,7-dihydro-4H-pyrrolo[2,3-d]pyrimidin-4-One]
fraction unbound (PPB Fu (h)): 0.15
IC50 (2C9): 11 µM
EC50 (USP7 [6]): 126 nM
IC50 (2C19): > 20 µM
IC50 (hERG): 15.6 µM
EC50 (LNCaP): 76 nM
Hep CLhep (m) (Hep CLhep (m)): 78
Hep CLhep (h) (Hep CLhep (h)): 9
IC50 (USP7 [7]; asterisk not explained, read-out: USP7 FP IC50 (value in brackets marked *)): 159 nM
IC50 (USP7 [7]; read-out: USP7 FP IC50): 386 nM
LM CLhep (d) (LM CLhep (d)): 22
MDCK A:B (MDCK; A:B): 0.2
MDCK B:A (MDCK; B:A): 50.1
efflux ratio (MDCK permeability): 276
KSol (KSol): 199 µM
TSol (TSol): 500 µM
efflux ratio (Caco-2 permeability): 4.1
Caco-2 A:B (Caco-2; A:B): 8.5
Caco-2 B:A (Caco-2; B:A): 34.7
